Laboratory results: patent EP0178388A1, “Quinolinecarboxylic acid derivatives” (KYORIN PHARMACEUTICAL CO., LTD., priority 1984, dated 1986)
Values after ≈ are worked out from the molar mass of the structure shown. Where a name gives a salt, the structure may show the parent alone. Read-outs that look alike come from different tables or passages of the source.

Tests used:
[1] = system: F. varium KYA (ATCC) 8501; assay: In vitro antibacterial activity, MIC (standard strain); type: cell-based; conditions: Fusobacterium varium, F. varium KYA (ATCC) 8501, 10^6 cells/ml
[2] = system: Acinetobacter anitratus IID 876; assay: as above; type: cell-based; conditions: Acinetobacter calcoaceticus, IID876; Acinetobacter anitratus IID 876, 10^6 cells/ml, standard strain; read-out: MIC
E. coli ML4707 = assay: MIC against the infecting strain (Table 2); type: cell-based; conditions: Escherichia coli; E. coli ML4707 (Table 2, parts 1 and 2)
Protocol: The in vitro antibacterial activity has been investigated, the minimun inhibitory concentration (MIC) was determined in accordance with the method recommended by Japan Society of Chemotherapy.

E. coli ATCC 10536 = assay: In vitro antibacterial activity, MIC (standard strain); type: cell-based; conditions: Escherichia coli, ATCC10536
S. pyogenes 4340 = assay: In vitro antibacterial activity, MIC (clinical isolates); type: cell-based; conditions: Streptococcus pyogenes; S. pyogenes 4340, 10^6 cells/ml, clinical isolate
S. epidermidis IID 866 = assay: In vitro antibacterial activity, MIC (standard strain); type: cell-based; conditions: Staphylococcus epidermidis, IID866, S. epidermidis IID 866, 10^6 cells/ml
[3] = system: Yersinia enterocolitica IID 981; assay: as above; type: cell-based; conditions: IID981; Yersinia enterocolitica IID 981, 10^6 cells/ml, standard strain; read-out: MIC
S. pyogenes 3102 = assay: In vitro antibacterial activity, MIC (clinical isolates); type: cell-based; conditions: Streptococcus pyogenes; S. pyogenes 3102, 10^6 cells/ml, clinical isolate
S. pneumoniae 2950 = assay: as above; type: cell-based; conditions: Streptococcus pneumoniae; S. pneumoniae 2950, 10^6 cells/ml, clinical isolate
[4] = system: Bacillus subtilis PCI 219; assay: In vitro antibacterial activity, MIC (standard strain); type: cell-based; conditions: PCI219; Bacillus subtilis PCI 219, 10^6 cells/ml, standard strain; read-out: MIC
S. pyogenes 4372 = assay: In vitro antibacterial activity, MIC (clinical isolates); type: cell-based; conditions: Streptococcus pyogenes; S. pyogenes 4372, 10^6 cells/ml, clinical isolate
S. pyogenes IID 692 = assay: In vitro antibacterial activity, MIC (standard strain); type: cell-based; conditions: Streptococcus pyogenes, IID692, S. pyogenes IID 692, 10^6 cells/ml
S. agalactiae 4468 = assay: In vitro antibacterial activity, MIC (clinical isolates); type: cell-based; conditions: Streptococcus agalactiae; S. agalactiae 4468, 10^6 cells/ml, clinical isolate
P. mirabilis IID 994 = assay: In vitro antibacterial activity, MIC (standard strain); type: cell-based; conditions: Proteus mirabilis, IID994, P. mirabilis IID 994, 10^6 cells/ml
[5] = system: Proteus vulgaris IFO 3167; assay: as above; type: cell-based; conditions: Proteus vulgaris, IFO3167
B. fragilis 25285 = assay: as above; type: cell-based; conditions: Bacteroides fragilis; B. fragilis 25285, 10^6 cells/ml, standard strain; read-out: MIC
[6] = system: Alcaligenes faecalis 0114002; assay: as above; type: cell-based; conditions: Alcaligenes faecalis 0114002, 10^6 cells/ml
[7] = system: Staphylococcus aureus 209 P; assay: as above; type: cell-based; conditions: 10^6 cells/ml, read-out: MIC
S. faecalis 214 = assay: In vitro antibacterial activity, MIC (clinical isolates); type: cell-based; conditions: Enterococcus faecalis; S. faecalis 214, 10^6 cells/ml, clinical isolate
[8] = system: Escherichia coli NIHJ JC-2; assay: In vitro antibacterial activity, MIC (standard strain); type: cell-based; conditions: NIHJJC2, Escherichia coli NIHJ JC-2, 10^6 cells/ml
Pst. micros UPI 5464-1 = assay: as above; type: cell-based; conditions: Parvimonas micra, UPI54641, Pst. micros UPI 5464-1, 10^6 cells/ml
[9] = system: Citrobacter freundii IID 976; assay: as above; type: cell-based; conditions: IID976
S. pneumoniae 3227 = assay: In vitro antibacterial activity, MIC (clinical isolates); type: cell-based; conditions: Streptococcus pneumoniae; S. pneumoniae 3227, 10^6 cells/ml, clinical isolate
S. agalactiae 4470 = assay: as above; type: cell-based; conditions: Streptococcus agalactiae; S. agalactiae 4470, 10^6 cells/ml, clinical isolate
S. faecalis IID 682 = assay: In vitro antibacterial activity, MIC (standard strain); type: cell-based; conditions: Enterococcus faecalis, IID682, S. faecalis IID 682, 10^6 cells/ml
S. aureus Smith = assay: MIC against the infecting strain (Table 2); type: cell-based; conditions: Staphylococcus aureus; S. aureus Smith (Table 2, part 5)
P. aeruginosa IID 1210 = assay: In vivo antibacterial activity against systemic infection in mice;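 note: ED50 in mg/kg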; set-up: species or system mice (ICR-S); conditions: Pseudomonas aeruginosa, IID1210; P. aeruginosa IID 1210, mice (ICR-S), intraperitoneal infection, oral at 1 hour after infection, challenge dose 2.5 x 10^5 cfu/mouse; read-out: ED50
Protocol: Experiment 2 In vivo antibacterial activity against systemic infection in mice (ICR-S)
The infections were produced by intraperitoneal infection of a suspension of the bacterial culture corresponding to the germ studied. The product was administered orally at 1 hour after the infection. The 50% effective dose (ED50) which protects 50% of the animals from death caused by the infection was determined from the relation between dosage and survival rate.

[10] = system: Propionibacterium acens 11828; assay: In vitro antibacterial activity, MIC (standard strain); type: cell-based; conditions: Propionibacterium acens 11828, 10^6 cells/ml
[11] = system: Fusobacterium necrophorum S-45; assay: as above; type: cell-based; conditions: S45, Fusobacterium necrophorum S-45, 10^6 cells/ml
C. ramosum = assay: as above; type: cell-based; conditions: Thomasclavelia ramosa; C. ramosum, 10^6 cells/ml, standard strain; read-out: MIC
[12] = system: Peptococcus magnus KY 017; assay: as above; type: cell-based; conditions: Finegoldia magna, KY017, Peptococcus magnus KY 017, 10^6 cells/ml

| Structure (SMILES) | MIC [1] [µg/mL] | MIC [2] [µg/mL] | MIC (E. coli ML4707) [µg/mL] | MIC (S. pyogenes 4340) [µg/mL] | MIC (S. epidermidis IID 866) [µg/mL] | MIC [3] [µg/mL] | MIC (S. pyogenes 3102) [µg/mL] | MIC (S. pneumoniae 2950) [µg/mL] | MIC [4] [µg/mL] | MIC (S. pyogenes 4372) [µg/mL] | MIC (S. pyogenes IID 692) [µg/mL] | MIC (S. agalactiae 4468) [µg/mL] | MIC (P. mirabilis IID 994) [µg/mL] | MIC [5] [µg/mL] | MIC (B. fragilis 25285) [µg/mL] | MIC [6] [µg/mL] | MIC [7] [µg/mL] | MIC (S. faecalis 214) [µg/mL] | MIC [8] [µg/mL] | MIC (Pst. micros UPI 5464-1) [µg/mL] | other results |
| --- | --- | --- | --- | --- | --- | --- | --- | --- | --- | --- | --- | --- | --- | --- | --- | --- | --- | --- | --- | --- | --- |
| CC1CN(c2c(F)cc3c(=O)c(C(=O)O)cn(C4CC4)c3c2F)CCN1 (stereo not drawn) [Example 2, l-Cyclopropyl-6,8-difluoro-l,4-dihydro-7-(3-methyl-l-piperazinyl)-4-oxoquinoline-3-carboxylic acid] | 6.25 (≈ 17.2 µM) | 0.006 (≈ 0.0165 µM) | 0.0125 (≈ 0.0344 µM) | 0.78 (≈ 2.15 µM) | 0.2 (≈ 0.55 µM) | 0.05 (≈ 0.138 µM) | 0.78 (≈ 2.15 µM) | 1.56 (≈ 4.29 µM) | 0.05 (≈ 0.138 µM) | 0.78 (≈ 2.15 µM) | 0.78 (≈ 2.15 µM) | 0.78 (≈ 2.15 µM) | 0.025 (≈ 0.0688 µM) | 0.0125 (≈ 0.0344 µM) | 0.78 (≈ 2.15 µM) | 0.2 (≈ 0.55 µM) | 0.2 (≈ 0.55 µM) | 0.78 (≈ 2.15 µM) | ≤ 0.006 | 0.2 (≈ 0.55 µM) | MIC (E. coli ATCC 10536; E. coli ATCC 10536, 10^6 cells/ml, standard strain, read-out: MIC): ≤ 0.006 µg/mL; MIC ([9]; Citrobacter freundii): 0.0125 µg/mL (≈ 0.0344 µM); MIC (S. pneumoniae 3227): 1.56 µg/mL (≈ 4.29 µM); MIC (S. agalactiae 4470): 0.78 µg/mL (≈ 2.15 µM); MIC (S. faecalis IID 682): 0.78 µg/mL (≈ 2.15 µM) |
| CC1CN(c2c(F)cc3c(=O)c(C(=O)O)cn(C4CC4)c3c2Cl)CCN1 (stereo not drawn) [Example 5, 8-Chloro-l-cyclopropyl-6-fluoro-1,4-dihydro-7-(3-methyl-1-piperazinyl)-4-oxoquinoline-3-carboxylic acid hydrochloride] | 3.13 | 0.05 | 0.0125 | 0.39 | 0.1 | 0.05 | 0.39 | 0.78 | 0.025 | 0.39 | 0.78 | 0.39 | 0.025 | 0.0125 | 0.39 | 0.39 | 0.1 | 0.78 | ≤ 0.006 | 0.2 | MIC (E. coli ATCC 10536): 0.0125 µg/mL; MIC (S. aureus Smith): 0.1 µg/mL; ED50 (P. aeruginosa IID 1210): 3.2 mg/kg; MIC [10]: 0.39 µg/mL; MIC [11]: 0.39 µg/mL; MIC (C. ramosum): 3.13 µg/mL; MIC [12]: 0.1 µg/mL; MIC ([9]; Citrobacter freundii IID 976, 10^6 cells/ml, standard strain, read-out: MIC): 0.025 µg/mL; MIC (S. pneumoniae 3227): 0.78 µg/mL; MIC (S. agalactiae 4470): 0.78 µg/mL; MIC (S. faecalis IID 682): 0.39 µg/mL |
